Data: ChEMBL document CHEMBL3507680, “University of Dundee, Gates Library screen for HepG2 cell viability”

assay: Human HepG2 cell viability assay in 384 well format; format: toxicity, cell-based; parameters: dose 125 nL, time 70.5 hour; concentration not given beside the values; details: HepG2 cells, read-out: Inhibition

| SMILES | cytotoxicity at 70.5 h |
| --- | --- |
| Cc1nc(C)n(CC2CCCN2CC(=O)Nc2cc(C)on2)n1 (stereo unspecified) | -8.96% |
| Cc1noc(C)c1CN1CCO[C@H]2CN(Cc3cnn(C)c3)C[C@H]21 | -4.66% |
| CC(=O)N1C[C@H](NS(=O)(=O)c2cccc(Cl)c2)[C@@H](C(C)C)C1 | -9.51% |
| CC(C1CCN(Cc2cnn(C)c2C2CC2)CC1)N(C)C (stereo unspecified) | -7.09% |
| Cc1ccc(C)c(S(=O)(=O)NC(=O)c2cccc3c2OCCO3)c1 | -104% |
| CCOCC(=O)N1Cc2cnc(-c3ccccc3)nc2C1 | -13% |
| O=C([C@H]1C[C@H]2OCC[C@H]2N(CC2CCOCC2)C1)N1CCCCO1 | -7.91% |
| Cc1ccc(CN(C)C(=O)c2cc(Cn3ccnc3C(C)C)[nH]n2)o1 | 3.51% |
| CCc1nccn1C1CCCN(C(=O)c2ccc3c(c2)OCO3)C1 (stereo unspecified) | -6.7% |
| Cn1cc(CN2CCC3(CC2)CC(Nc2nccs2)CO3)cn1 (stereo unspecified) | 16.9% |
| CN1CCC2(CC1)CN(C(=O)c1cccnc1)c1ccc(Cl)cc12 | -10.6% |
| CCOC(=O)c1cnn(C2CCN(C(=O)CCC(C)C)CC2)c1N | 0.0774% |
| Cc1cnn(CCC(=O)N2CCCN(c3nc(C)cs3)CC2)c1 | -3.54% |
| Cn1ccc(C(=O)N2C[C@@H]3OCCN(c4ncccn4)[C@@H]3C2)n1 | -12.1% |
| Cn1ncc2c(N[C@H]3CC[C@@H](N)CC3)nc(C(C)(C)C)nc21 | 6.09% |
| CC(C)CNC(=O)[C@H]1C[C@@H]2CN(C(=O)NCC3CCCCC3)C[C@H]1O2 | -2.13% |
| CC1CN(C(=O)NCCNc2cnccn2)CCO1 (stereo unspecified) | 25.6% |
| Cc1cccc(NC2CCN(C(=O)Nc3ccc(F)c(F)c3)CC2)n1 | -4.64% |
| Cc1nccc(-c2cccc(NCC(=O)N3CCOCC3)c2)n1 | -4.16% |
| COc1c(CNC2CCOc3ccccc32)c(C(C)C)nn1C (stereo unspecified) | -7.12% |
| CCN1CCCC12CCN(Cc1cccnc1OC)CC2 | -4.58% |
| CN(C)CC1COCCN1C(=O)c1ccccc1C(=O)c1ccccc1 (stereo unspecified) | -7.66% |
| COc1ccc2nnc(CCCC(=O)NCCc3ccncc3)n2n1 | -5% |

| SMILES | cytotoxicity at 70.5 h |
| --- | --- |
| CC(C)(C)c1cc(NC(=O)CN(Cc2cccs2)Cc2cccs2)on1 | -8.34% |
| c1ccc(CN2CCCC2)c(CNc2cncc3nnnn23)c1 | -7.51% |
| CC(=O)N1CCC(c2nccnc2Nc2ncc(C)s2)CC1 | -10.6% |
| Cc1cnc(N2CC3(CCN(C(=O)c4ccoc4)C3)C2)nc1 | -2.31% |
| COc1ccc2nnc(C(=O)NCC3CCCC3)nc2c1 | -4.54% |
| O=C(Nc1cnn(CC(F)F)c1)c1cccc(-n2cnnn2)c1 | -1.49% |
| CCCN1CCC(NCc2ccncc2)CC1 | -5.69% |
| COCCNC(=O)CN1CCN(c2nc(C)cs2)C(C)C1 (stereo unspecified) | -1.03% |
| CCCc1noc(C2CCN(C(=O)CCn3nc(C)cc3C)CC2)n1 | -7% |
| N#Cc1ccc(N2CCC(c3nccn3Cc3cscn3)CC2)nc1 | -0.885% |
| O=C(c1ccco1)N1C[C@H]2CCCN(CC3CCOCC3)[C@H]2C1 | -7.8% |
| CC(C)(O)CCc1ccc(C(=O)NCC2CCCOC2)cc1 (stereo unspecified) | -2.37% |
| CCc1nc(CN2CCN(C(=O)c3cnccn3)CC2)cs1 | -5.66% |
| Cc1nnc([C@]23COC[C@H]2CN(S(=O)(=O)c2cccnc2)C3)o1 | -5.13% |
| Cc1ncc(-c2nc3cc(S(=O)(=O)N4CCCC4)ccc3n2C)cn1 | -0.434% |
| CCc1nc(C(=O)N2CCCCC2)nn1-c1ccccc1Cl | -6.89% |
| CC(C)N1CCO[C@H]2CN(C(=O)c3ccc(N(C)C)cc3)C[C@H]21 | -2.38% |
| Cc1nsc(NC(=O)NC2(CN3CCOCC3)CCCCC2)n1 | 1.42% |
| CCCC(O)CN1CCC(=O)N(CCOC)Cc2ccccc21 (stereo unspecified) | -10.1% |
| CN1CCOC(CNCc2nc(-c3ccccc3)cs2)C1 (stereo unspecified) | 9.31% |
| O=C(c1cnccn1)N1C[C@@H](OCc2ccncc2)[C@@H]2OCCC[C@@H]21 | -8.9% |
| Cc1cc(OC(F)F)c(C(=O)NCC(O)c2cccc(F)c2)s1 (stereo unspecified) | 6.81% |
| Cc1cccc(C2(O)CCN(C(=O)c3ccccn3)CC2)c1C | 1.09% |

| SMILES | cytotoxicity at 70.5 h |
| --- | --- |
| Cc1ccc(C#N)cc1NC(=O)NC1CCCN(c2ncccn2)C1 (stereo unspecified) | -0.699% |
| Cc1ccc(Oc2nccnc2C2CCN(C(=O)C(C)(C)N)CC2)cc1 | -6.45% |
| CN1CCCC(c2cccc(-c3cccc(C(F)(F)F)c3)n2)C1 (stereo unspecified) | -2.8% |
| CCc1nc(C2CCCN2C(=O)c2ccc(N(C)C)nn2)no1 (stereo unspecified) | -0.946% |
| COC(=O)[C@H](CC(C)C)NC(=O)c1snnc1-c1ccc(OC)cc1 | 10.9% |
| CS(=O)(=O)N1CCN(Cc2cccs2)CC(C(N)=O)C1 (stereo unspecified) | -2.16% |
| c1cc(CN2C[C@@H]3OCCN(CC4CCCO4)[C@@H]3C2)cs1 (stereo partly specified) | -7.25% |
| Cc1ccc(N2CC3(CCN(c4nccs4)C3)C2)nn1 | -4.92% |
| COc1cccc(CNCc2ccc(F)c(Cl)c2)c1O | 27% |
| Cc1ccc(C2CN(CCCS(=O)(=O)C(C)C)CCO2)c(C)c1 (stereo unspecified) | -2.16% |
| CNC(=O)[C@H]1C[C@@H]2CCN(Cc3ccc4c(c3)OCO4)C[C@@H]2O1 | -7.08% |
| Cc1cc(C)c(CNC(=O)N2CCNC(=O)C2)c(=O)[nH]1 | -4.49% |
| COCCN(C)C(=O)c1nc2c(s1)CCCN2C | 11.8% |
| COc1cnc(C2(O)CCN(C(=O)c3ccccn3)CC2)c(OC)n1 | -13.1% |
| O=C([C@@H]1COC[C@H]2CN(C3CCOCC3)C[C@H]21)N1CCOCC1 | -1.42% |
| Cc1ccoc1CNC(C)c1nnc2n1CCCC2 (stereo unspecified) | 13% |
| O=c1ccc(-n2ccnc2)nn1CCNS(=O)(=O)c1ccc(F)c(Cl)c1 | -1.07% |
| CC(=O)NCC1CCC2(CCN(c3ncnc4oc(C)nc34)CC2)O1 (stereo unspecified) | 21.7% |
| Cc1nc(CN(C)C2CCN(Cc3cccc4c3OCCO4)C2)no1 (stereo unspecified) | 28.1% |
| Cc1ccc2c(c1)N(C(=O)c1c[nH]c(C)cc1=O)CC(C)O2 (stereo unspecified) | 28.6% |
| COCc1cnc2n1CCN(S(=O)(=O)N(C)C)C2C (stereo unspecified) | -15.1% |
| Cc1ccc(NC(=O)c2cc(S(=O)(=O)N3CCCCC3)c[nH]2)cc1F | -8.62% |
| CN(CC(=O)NCCc1ccccn1)C(=O)c1cccs1 | -19.9% |

| SMILES | cytotoxicity at 70.5 h |
| --- | --- |
| O=C(Cc1c[nH]c2ncccc12)NCC(O)c1ccccc1F (stereo unspecified) | 15.1% |
| O=C1CN(Cc2occc2C(=O)NCCc2ccc(F)cc2)CCN1 | 2.4% |
| CN(C)S(=O)(=O)N1CCN(Cc2ccnc(N3CCCC3)n2)CC1 | -1.31% |
| O=C(CC1CCCO1)Nc1ccc2c(ccn2CCN2CCOCC2)c1 (stereo unspecified) | -8.05% |
| COc1ccccc1OCC(=O)NCC(C)(O)c1ccccc1 (stereo unspecified) | -12.5% |
| CCc1cnc(N2CC[C@H]3[C@H]2CC(=O)N3c2cccnc2)nc1 | -10% |
| c1ccc2oc(NC3CCCN(Cc4noc(C5CC5)n4)C3)nc2c1 (stereo unspecified) | -10.4% |
| Cc1cccc(CN2CC[C@H]3OCC[C@@]3(C(=O)N3CCCO3)C2)n1 | -2.84% |
| O=C(c1cccnc1)N1CCN2C(=O)N(Cc3ccc(F)cc3)C[C@H]2C1 | 9.22% |
| CC(C)CN1CCCC12CCN(c1nncs1)C2 (stereo unspecified) | -4.38% |
| O=C(O)C1CCCN(c2nc3c(-c4ccccc4)csc3c(=O)[nH]2)C1 (stereo unspecified) | 0.25% |
| Cc1ccc(S(=O)(=O)N2CC[C@@H]3C[C@H](NC(=O)c4ccncc4)[C@@H]32)cc1 | -2.83% |
| CSc1nccc(N2CCC(NCCN3CCOCC3)CC2)n1 | -6.94% |
| COCC(C)(C)NC(=O)CC(c1ccccc1)C(F)(F)F (stereo unspecified) | -15.6% |
| Cn1cc(CN2CCc3c(nnn3C)C2COCc2ccccc2)cn1 (stereo unspecified) | 32.3% |
| CS(=O)(=O)N1CCC2(CC1)CC(NCC1CC1)c1ccccc12 (stereo unspecified) | -7.3% |
| Cc1nn(C)c(C)c1C1COCCN1C(=O)Cc1cccc(F)c1 (stereo unspecified) | 12.5% |
| COCCOCC(=O)N1CCC(c2ccccc2F)C1 (stereo unspecified) | -9.1% |
| O=C(NCC1CCS(=O)(=O)C1)c1ccc(NC(=O)c2ccco2)cc1 (stereo unspecified) | 26.8% |
| COCc1nc2nc(O)c3c(n2n1)NC(=O)CC3c1ccc(SC)cc1 (stereo unspecified) | 1.29% |
| Cc1cc(C)n(-c2cncc(NCCC(=O)NC(C)C)n2)n1 | -10.2% |
| c1ccc(N2CCOC(Cc3cccnc3)C2)cc1 (stereo unspecified) | -7.14% |
| O=C(NC1CC1)c1cc(Cl)ccc1-n1cnnn1 | -6.19% |

| SMILES | cytotoxicity at 70.5 h |
| --- | --- |
| O=C(c1ccncc1)N1CCCC(c2cc(C(F)F)n3ncnc3n2)C1 (stereo unspecified) | -3.18% |
| Cc1nc(CN2CCC(N(C)Cc3nnc(C4CC4)n3C)C2)cs1 (stereo unspecified) | -1.39% |
| N#CCCN(CCC#N)C(=O)c1cccc(N2CCNC2=O)c1 | -7.77% |
| COc1ccc(NC(=O)N2CCCC2c2ccco2)cc1OC (stereo unspecified) | -0.202% |
| Cc1cccc(CN2C(=O)CCC23CCN(Cc2nccn2C)CC3)n1 | -4.21% |
| COCC1CCN(C(C(=O)O)c2c(F)cccc2OC(C)C)CC1 (stereo unspecified) | -6.42% |
| COCC(=O)Nc1nnc2n(Cc3cccc(OC)c3)[nH]c(C)c1-2 | -5.86% |
| Cn1cc(C(=O)N2CCOc3ccccc32)ccc1=O | -12.6% |
| CCn1ccnc1CN1CCCN(C(=O)c2cnn(C)c2)CC1 | -7.1% |
| CN(C(=O)CN1CCC(NC(=O)c2cccs2)CC1)c1ccccc1 | -6.85% |
| COc1cccc(CN2CCC3(CCN(c4ncc(C)cn4)C3)C2=O)c1 (stereo unspecified) | -0.0299% |
| CC(=O)c1cnc(NCCc2csc(-c3cnccn3)n2)nc1C | -10.8% |
| NC(=O)CN1C(=O)CO[C@H]2CN(Cc3ccccc3)C[C@H]21 | -0.937% |
| CN(C)CCCNC(=O)c1nnsc1-c1ccccc1 | -8.68% |
| CC(C)Nc1nc2c(cc1C(=O)N(C)C)CCNCC2 | -6.7% |
| Cc1ccc(F)cc1S(=O)(=O)N(C)CC(N)=O | -11.9% |
| COc1ccc(C(=O)N2CCOCC(CO)C2)cc1N1CCOCC1 (stereo unspecified) | -3.09% |
| Cc1nn2c(N3CCC(C(N)=O)CC3)cc(-c3ccccc3)nc2c1C | -2.04% |
| CNC(=O)[C@H]1C[C@H]2OCC[C@H]2N(CCOc2ccc(Cl)cc2)C1 | -1.59% |
